Results published in PubChem BioAssay AID1208 (EPA DSSTox, 2008).
Active and inactive are the calls of the source.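 The calls were made as follows: active = at least one rat sex group has a carcinogenic potency value and tumor site recorded; inconclusive = only rat studies were judged inadequate by the national testing program; inactive = no potency or tumor site, with negative rat experiments.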

Test system: rat chronic carcinogenicity bioassay, TD50
Assay: DSSTox (CPDBAS) Carcinogenic Potency Database Summary Rat Bioassay Results
Conditions: for Potency: active compounds read low; for outcome: TD50_Rat_Note: no positive results
In short: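 Chronic long-term rat cancer bioassays from literature and NCI/NTP, taking the most positive result per sex. TD50 in mmol converted to a 1–100 Activity Score from log10(1/TD50). Mixtures lacking TD50 scored 50.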

[1] = TargetSites_Rat_Female: no positive results
[2] = TD50_Rat_Note: TD50 is harmonic mean of more than one positive test, TargetSites_Rat_Female: stomach
[3] = TD50_Rat_Note: TD50 is harmonic mean of more than one positive test, TargetSites_Rat_Female: kidney

CN(C)N=Nc1ccccc1
Potency (TargetSites_Rat_BothSexes: nervous system): 2.31 mg/kg/day

O=C1C(c2[nH]c3ccc(S(=O)(=O)O)cc3c2O)=Nc2ccc(S(=O)(=O)O)cc21
outcome (TargetSites_Rat_BothSexes: no positive results): inactive

CN[C@H]1CCc2cc(OC)c(OC)c(OC)c2-c2ccc(OC)c(=O)cc21
outcome: inactive; no positive results

OCCN(CCO)c1nc(-c2cccs2)nc2ccccc12
outcome [1]: inactive

[N-]=[N+]=CC(=O)OC[C@H](N)C(=O)O
Potency (TD50_Rat_Note: positive test results only by intraperitoneal or intravenous injection, TargetSites_Rat_BothSexes: pancreas): 0.793 mg/kg/day

C[N+](=O)[O-]
Potency (TargetSites_Rat_Female: mammary gland): 40.4 mg/kg/day

S=C=NCCCc1ccccc1
outcome: inactive; no positive results

CCCCCc1cc(O)c2c(c1)OC(C)(C)[C@@H]1CCC(C)=C[C@@H]21
outcome [1]: inactive; no positive results

CN(N=O)c1ccccc1
Potency (TD50_Rat_Note: TD50 is harmonic mean of more than one positive test, harmonic mean of TD50 includes a value for upper 99% confidence li, TargetSites_Rat_Female: esophagus): 0.142 mg/kg/day

C[C@]12CCC(=O)C=C1CC[C@@H]1[C@@H]2[C@@H](O)C[C@@]2(C)[C@H]1CC[C@]2(O)C(=O)CO
outcome [1]: inactive; no positive results

CN1CCC[C@H]1c1cccnc1
outcome [1]: inactive; no positive results

CN(C)CCOC(C)(c1ccccc1)c1ccccn1 (stereo not given)
Potency [1]: 1610 mg/kg/day

COc1cc2c(cc1N)oc1ccccc12
Potency (TD50_Rat_Note: TD50 is harmonic mean of more than one positive test, harmonic mean of TD50 includes a value for upper 99% confidence li, TargetSites_Rat_Female: ear Zymbals gland, mammary gland, urinary bladder): 29 mg/kg/day

c1cc(OCC2CO2)cc(OCC2CO2)c1 (stereo not given)
Potency [2]: 3.78 mg/kg/day

O=C(O)c1nn(Cc2ccc(Cl)cc2Cl)c2ccccc12
outcome [1]: inactive; no positive results

O=C1Nc2ccc(Cl)cc2C(c2ccccc2)=NC1O (stereo not given)
outcome [1]: inactive; no positive results

Nc1ccc2c(c1)oc1ccccc12
Potency: 2.48 mg/kg/day

COc1ccc(C(=O)/C(Br)=C\C(=O)O)cc1
Potency (TD50_Rat_Note: positive test results only by intraperitoneal or intravenous injection, TD50 is harmonic mean of more than one positive, TargetSites_Rat_Female: mammary gland): 2.77 mg/kg/day

ClCC1CO1 (stereo not given)
Potency [2]: 2.96 mg/kg/day

O=CCCCC=O
outcome [1]: inactive; no positive results

O=C1NCCN1/N=C/c1ccc([N+](=O)[O-])o1
Potency (TargetSites_Rat_Female: hematopoietic system, mammary gland): 5.26 mg/kg/day

NC(=O)N(CCF)N=O
Potency: 0.125 mg/kg/day

O=P1(NCCCl)OCCCN1CCCl (stereo not given)
Potency (TD50_Rat_Note: positive test results only by intraperitoneal or intravenous injection, TargetSites_Rat_Female: uterus): 0.739 mg/kg/day

O=C(O)CCC(=O)O
outcome [1]: inactive; no positive results

Cc1cc(C)nc(-c2ccc([N+](=O)[O-])o2)n1
Potency (TD50_Rat_Note: harmonic mean of TD50 includes a value for upper 99% confidence limit from study with 100% tumor incidence but no lifeta, TargetSites_Rat_Female: kidney, mammary gland, small intestine, stomach, vascular system): 1.39 mg/kg/day

CCC1(c2ccccc2)C(=O)NC(=O)NC1=O
outcome [1]: inactive; no positive results

NC(=S)NNC=O
outcome [1]: inactive

CCc1cccc2c3c([nH]c12)C(CC)(CC(=O)O)OCC3 (stereo not given)
outcome [1]: inactive; no positive results

c1ccc2c(c1)cc1ccc3cccc4ccc2c1c34
Potency (TargetSites_Rat_BothSexes: stomach): 0.956 mg/kg/day

S=c1nc[nH]c2nc[nH]c12
outcome [1]: inactive; no positive results

Clc1cnc(Oc2ccc(Oc3ncc(Cl)cc3Cl)cc2)c(Cl)c1
outcome: inactive; no positive results

CN(C)CCN(Cc1ccsc1)c1ccccn1
outcome [1]: inactive; no positive results

Cc1cc(Cl)ccc1N
outcome [1]: inactive; no positive results

Cn1cc(OCC(O)CNC(C)(C)C)c2ccccc2c1=O (stereo not given)
outcome [1]: inactive; no positive results

O=P(OCC(Br)CBr)(OCC(Br)CBr)OCC(Br)CBr (stereo not given)
Potency [3]: 3.83 mg/kg/day

CCCCNC(N)=O
outcome [1]: inactive; no positive results

C=CCN(CCO)N=O
Potency (TargetSites_Rat_Female: liver, nasal cavity): 0.491 mg/kg/day

ClC(Cl)=C(Cl)C(Cl)=C(Cl)Cl
Potency [3]: 65.8 mg/kg/day

[Cl-].[Cl-].[Sn+2]
outcome [1]: inactive; no positive results

O=[N+]([O-])c1cc(N(CCO)CCO)ccc1NCCO
outcome [1]: inactive; no positive results

O=NN1CC=CCC1
Potency (TD50_Rat_Note: TD50 is harmonic mean of more than one positive test, harmonic mean of TD50 includes a value for upper 99% confidence li, TargetSites_Rat_Female: esophagus, liver, stomach, vascular system): 0.0601 mg/kg/day

FCC(F)(F)F
Potency [1]: 29900 mg/kg/day

CS(=O)(=O)OCCCNCCCOS(C)(=O)=O
outcome [1]: inactive; no positive results

[K+]
Potency (TD50_Rat_Note: TD50 is harmonic mean of more than one positive test, TargetSites_Rat_Female: oral cavity): 440 mg/kg/day

Nc1ccc(Oc2ccc(N)cc2)cc1
Potency (TD50_Rat_Note: TD50 is harmonic mean of more than one positive test, TargetSites_Rat_Female: liver, thyroid gland): 9.51 mg/kg/day
